Drawing on PubChem BioAssay AID330 (DTP/NCI, 2004), this text covers T/C for 22 compounds.

In the test the test system is P388 leukemia ip, CD2F1 mice, survival T/C. The experiment in a line: NCI In Vivo Anticancer Drug Screen. Data for tumor model P388 Leukemia (intraperitoneal) in CD2F1 (CDF1) mice. Conditions: endpoint: median survival time, higher = longer survival. The method, boiled down: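 Mice carrying the transplanted tumor received test compound or vehicle. Survival was recorded in each group, and the value is the treated-group measurement divided by that of the vehicle-treated control group.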

[1] abbreviates: dose: 50.0 mg/kg/injection, schedule: Q01DX009 (ip), vehicle: saline with Tween-80.
Where [2] appears, read: dose: 100.0 mg/kg/injection, schedule: Q01DX009 (ip), vehicle: saline with Tween-80.
Setting [3] is: dose: 200.0 mg/kg/injection, schedule: Q01DX009 (ip), vehicle: saline with Tween-80.
The mark [4] stands for this setting: dose: 400.0 mg/kg/injection, schedule: Q01DX009 (ip), vehicle: saline with Tween-80.
The mark [5] stands for this setting: dose: 50.0 mg/kg/injection, schedule: Q01DX005 (ip), vehicle: saline with Tween-80.
The mark [6] stands for this setting: dose: 100.0 mg/kg/injection, schedule: Q01DX005 (ip), vehicle: saline with Tween-80.
Setting [7] is: dose: 200.0 mg/kg/injection, schedule: Q01DX005 (ip), vehicle: saline with Tween-80.
Where [8] appears, read: dose: 60.0 mg/kg/injection, schedule: Q01DX005 (ip), vehicle: Klucel (hydroxypropylcellulose) (HPC).
The mark [9] stands for this setting: dose: 120.0 mg/kg/injection, schedule: Q01DX005 (ip), vehicle: Klucel (hydroxypropylcellulose) (HPC).
Setting [10] is: dose: 240.0 mg/kg/injection, schedule: Q01DX005 (ip), vehicle: Klucel (hydroxypropylcellulose) (HPC).
The mark [11] stands for this setting: dose: 50.0 mg/kg/injection, schedule: Q01DX005 (ip), vehicle: Klucel (hydroxypropylcellulose) (HPC).
The mark [12] stands for this setting: dose: 100.0 mg/kg/injection, schedule: Q01DX005 (ip), vehicle: Klucel (hydroxypropylcellulose) (HPC).
Setting [13] is: dose: 200.0 mg/kg/injection, schedule: Q01DX005 (ip), vehicle: Klucel (hydroxypropylcellulose) (HPC).

Values joined by “and” are separate entries in the source; they are usually repeats but may differ in a detail not shown here. Equal entries are not always repeated. Inconclusive results and toxic doses are left out.

Take `CC(C)(C)c1cc(C(C)(C)c2ccccc2)cc(Cc2cc(C(C)(C)c3ccccc3)cc(C(C)(C)C)c2O)c1O`: the T/C is, setting by setting: under setting [1], 92 % of control; under setting [2], 94 % of control; under setting [3], 93 % of control; under setting [4], 89 % of control.
Turning to `Cc1ccc2c(c1)C1(SCCC(=O)N1c1ccc(Cl)cc1)C(=O)N2` (stereo not given), the T/C by setting is: under setting [5], 103 % of control; under setting [6], 95 % of control; under setting [7], 100 % of control.
Take `Cc1ccc(SCc2cn(C3CC(O)C(CO)O3)c(=O)[nH]c2=O)cc1` (stereo not given): the T/C is 99 % of control under setting [8], 95 % of control under setting [9] and 92 % of control under setting [10].
Take `COC(=O)CCCCCCCCCCN(CCCl)CCCl`: the T/C is 160 % of control and 169 % of control (dose: 6.25 mg/kg/injection, schedule: Q01DX009 (ip), vehicle: saline); 89 % of control (dose: 12.5 mg/kg/injection, schedule: Q01DX009 (ip), vehicle: saline).
As to `CCOc1ccc(NS(=O)(=O)c2ccc(N)cc2)cc1CN(CCCl)CCCl`, the T/C was 99 % of control (dose: 100.0 mg/kg/injection, schedule: Q01DX001 (ip), vehicle: saline with Tween-80); 99 % of control (dose: 200.0 mg/kg/injection, schedule: Q01DX001 (ip), vehicle: saline with Tween-80); 93 % of control (dose: 400.0 mg/kg/injection, schedule: Q01DX001 (ip), vehicle: saline with Tween-80).
As to `COc1ccc(N=C/C=C/c2ccccc2)cc1`, the T/C under setting [2] was 118 % of control, the T/C under setting [3] is 118 % of control and the T/C under setting [4] is 118 % of control.
As to `N#C/C(=C\c1cccs1)c1ccccc1`, the T/C under setting [1] is 102 % of control, the T/C under setting [2] is 103 % of control, the T/C under setting [3] is 100 % of control and the T/C under setting [4] was 105 % of control.
Take `C/C([O-])=c1\c(C)nn2ccc[n+]12`: the T/C is 100 % of control (dose: 25.0 mg/kg/injection, schedule: Q01DX005 (ip), vehicle: saline with Tween-80); 108 % of control under setting [5]; 96 % of control under setting [6]; 99 % of control under setting [7].
Turning to `CCn1cc(C(=O)O)c(=O)c2cc3c(cc21)OCO3`, the T/C under setting [8] is 100 % of control, the T/C under setting [9] was 103 % of control and the T/C under setting [10] was 100 % of control.
In the case of `O=C(/C=C/c1ccc(O)cc1)c1ccccc1`, the T/C (dose: 50.0 mg/kg/injection, schedule: Q04DX003 (ip), vehicle: saline with Tween-80) is 105 % of control and 94 % of control; the T/C (dose: 100.0 mg/kg/injection, schedule: Q04DX003 (ip), vehicle: saline with Tween-80) is 98 % of control and 105 % of control; the T/C (dose: 200.0 mg/kg/injection, schedule: Q04DX003 (ip), vehicle: saline with Tween-80) was 103 % of control and 105 % of control; the T/C (dose: 400.0 mg/kg/injection, schedule: Q04DX003 (ip), vehicle: saline with Tween-80) was 105 % of control.
Regarding `COc1ncnc2nc(Cl)[nH]c12`, the T/C under setting [11] is 100 % of control and the T/C under setting [12] was 102 % of control.
With `C=CCC1(OC(C)=O)CC2C(=O)C(=O)C(C1)N2OC(=O)c1ccccc1` (stereo not given), the T/C runs as follows: under setting [11], 100 % of control; under setting [12], 87 % of control; under setting [13], 94 % of control.
For the compound `O=S1(=O)N=C([O-])c2ccc(C[N+]3(CCCl)CCN(CCCl)CC3)cc21`, the T/C (dose: 12.5 mg/kg/injection, schedule: Q01DX009 (ip), vehicle: DMSO) is 87 % of control; the T/C (dose: 25.0 mg/kg/injection, schedule: Q01DX009 (ip), vehicle: DMSO) is 105 % of control; the T/C (dose: 50.0 mg/kg/injection, schedule: Q01DX009 (ip), vehicle: DMSO) is 87 % of control; the T/C (dose: 100.0 mg/kg/injection, schedule: Q01DX009 (ip), vehicle: DMSO) was 115 % of control.
Consider `Clc1cc2[nH]cnc2c(Cl)n1`, for which the T/C by setting is: (dose: 6.25 mg/kg/injection, schedule: Q04DX002 (ip), vehicle: saline) 102 % of control; (dose: 12.5 mg/kg/injection, schedule: Q04DX002 (ip), vehicle: saline) 102 % of control; (dose: 25.0 mg/kg/injection, schedule: Q04DX002 (ip), vehicle: saline) 103 % of control.
Turning to `c1ccc2sc(SSN3CC4CCC(CC4)C3)nc2c1`, the T/C by setting is: (dose: 12.5 mg/kg/injection, schedule: Q01DX009 (ip), vehicle: saline with Tween-80) 102 % of control; (dose: 25.0 mg/kg/injection, schedule: Q01DX009 (ip), vehicle: saline with Tween-80) 107 % of control; under setting [1], 123 % of control; under setting [2], 115 % of control.
Take `CCc1nc(N)nc(N)c1-c1ccc(NC(C)c2ccccc2)c([N+](=O)[O-])c1` (stereo not given): the T/C is 101 % of control (dose: 3.75 mg/kg/injection, schedule: Q01DX005 (ip), vehicle: Klucel (hydroxypropylcellulose) (HPC)); 101 % of control and 107 % of control (dose: 7.5 mg/kg/injection, schedule: Q01DX005 (ip), vehicle: Klucel (hydroxypropylcellulose) (HPC)); 112 % of control and 113 % of control (dose: 15.0 mg/kg/injection, schedule: Q01DX005 (ip), vehicle: Klucel (hydroxypropylcellulose) (HPC)).
As for `CC(C)C12CN1C2(c1ccccc1)c1ccccc1` (stereo not given), the T/C by setting is: (dose: 60.0 mg/kg/injection, schedule: Q01DX005 (ip), vehicle: saline with Tween-80) 100 % of control; (dose: 120.0 mg/kg/injection, schedule: Q01DX005 (ip), vehicle: saline with Tween-80) 106 % of control; (dose: 240.0 mg/kg/injection, schedule: Q01DX005 (ip), vehicle: saline with Tween-80) 107 % of control.
Consider `NC1C(=O)NC(=O)NC1=O`, for which the T/C (dose: 25.0 mg/kg/injection, schedule: Q01DX005 (ip), vehicle: Klucel (hydroxypropylcellulose) (HPC)) is 96 % of control; the T/C under setting [11] is 96 % of control; the T/C under setting [12] is 98 % of control; the T/C under setting [13] is 100 % of control; the T/C (dose: 400.0 mg/kg/injection, schedule: Q01DX005 (ip), vehicle: Klucel (hydroxypropylcellulose) (HPC)) is 105 % of control.
`Cc1cc(C=C2C(=O)c3ccccc3C2=O)cc(C)c1O`: the T/C is 97 % of control (dose: 100.0 mg/kg/injection, schedule: Q04DX002 (ip), vehicle: saline); 101 % of control (dose: 200.0 mg/kg/injection, schedule: Q04DX002 (ip), vehicle: saline); 93 % of control (dose: 400.0 mg/kg/injection, schedule: Q04DX002 (ip), vehicle: saline).
Regarding `OCc1c(CO)c(-c2ccc(Cl)cc2)n2c1CCC2`, the T/C is, setting by setting: (dose: 12.5 mg/kg/injection, schedule: Q01DX005 (ip), vehicle: distilled water + Tween-80) 120 % of control; (dose: 25.0 mg/kg/injection, schedule: Q01DX005 (ip), vehicle: distilled water + Tween-80) 111 % of control and 120 % of control; (dose: 50.0 mg/kg/injection, schedule: Q01DX005 (ip), vehicle: distilled water + Tween-80) 112 % of control; (dose: 100.0 mg/kg/injection, schedule: Q01DX005 (ip), vehicle: distilled water + Tween-80) 156 % of control; (dose: 200.0 mg/kg/injection, schedule: Q01DX005 (ip), vehicle: distilled water + Tween-80) 186 % of control; (dose: 400.0 mg/kg/injection, schedule: Q01DX005 (ip), vehicle: distilled water + Tween-80) 157 % of control.
For `C1=C(N2CCCC2)C(=[N+]2CCCC2)C(N2CCCC2)=C1`, the T/C runs as follows: (dose: 3.75 mg/kg/injection, schedule: Q01DX005 (ip), vehicle: saline with Tween-80) 101 % of control; (dose: 7.5 mg/kg/injection, schedule: Q01DX005 (ip), vehicle: saline with Tween-80) 100 % of control; (dose: 15.0 mg/kg/injection, schedule: Q01DX005 (ip), vehicle: saline with Tween-80) 105 % of control.
For `O=C(Nc1ccc(OCCCCCOc2ccccc2)cc1)C(F)(F)F`, the T/C was 100 % of control under setting [1], 116 % of control under setting [2] and 114 % of control under setting [3].
